Source: PubChem BioAssay (NCI)
“And” between values parts separate entries of the source, which are not always exact repeats. Equal values may be shown once.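 Test compounds were applied to cells in 96-well plates for 48 hours at 5 doses. At the GI50, growth is halved. TGI denotes the concentration required for complete inhibition of growth.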 Where a SMILES comes first, the peptide text is derived from it. [ ]: non-standard residue; d: D form. NMeY = CN[C@@H](Cc1ccc(O)cc1)C(=O)O; dNMeF = CN[C@H](Cc1ccccc1)C(=O)O; Sar = CNCC(=O)O

Tests used:
Test in all cases: inhibition of tumour cell growth, NCI panel, 48 h
EKVX NSCLC = tested on: EKVX NSCLC
HCT-116 colon = tested on: HCT-116 colon
LXFL 529 NSCLC = tested on: LXFL 529 NSCLC
M19-MEL melanoma = tested on: M19-MEL melanoma
RXF 393 renal = tested on: RXF 393 renal
SK-OV-3 ovarian = tested on: SK-OV-3 ovarian
SNB-75 CNS = tested on: SNB-75 CNS
U251 CNS = tested on: U251 CNS
NCI/ADR-RES ovarian = tested on: NCI/ADR-RES ovarian
T-47D breast = tested on: T-47D breast

Row | Structure (SMILES) | TGI (EKVX NSCLC) [µM] | TGI (HCT-116 colon) [µM] | TGI (LXFL 529 NSCLC) [µM] | TGI (M19-MEL melanoma) [µM] | TGI (RXF 393 renal) | TGI (SK-OV-3 ovarian) | TGI (SNB-75 CNS) | TGI (U251 CNS) [µM] | GI50 (EKVX NSCLC) [µM] | GI50 (HCT-116 colon) [µM] | GI50 (LXFL 529 NSCLC) [µM] | GI50 (M19-MEL melanoma) [µM] | GI50 (RXF 393 renal) [µM] | GI50 (SK-OV-3 ovarian) | GI50 (SNB-75 CNS) [µM] | GI50 (U251 CNS) [µM] | GI50 (NCI/ADR-RES ovarian) [µM] | TGI (NCI/ADR-RES ovarian) | GI50 (T-47D breast) [µM] | TGI (T-47D breast) [µM]
1 | CN(C)CC/C(=N\Nc1ccc(Cl)c(Cl)c1)c1ccccc1 | 3.93 | 3.19 | 2.9 | 3.51 | 8.47 µM | 14.1 µM | 7.08 µM | 3.28 |  |  |  |  |  |  |  |  |  |  |  | 
2 | COc1cc2ccnc(-c3c4ccccc4c(N)c4c(OC)c(OC)ccc34)c2cc1OC | 24.2 |  | 15.7 | 13.7 | 6.87 µM | 20.4 µM |  | 14 |  |  |  |  |  |  |  |  |  |  |  | 
3 | Cc1ccc(S(=O)(=O)SCc2ccccc2CSS(=O)(=O)c2ccc(C)cc2)cc1 | > 100 | 59.6 | 32.6 | 60.3 | 29.6 µM | > 100 µM | > 100 µM | 89.5 |  |  |  |  |  |  |  |  |  |  |  | 
4 | Cc1ccccc1NC(=O)C1C(=O)N(c2ccccc2C)C(=O)/C1=N\N (centres undefined) | > 100 | > 100 | > 100 | > 100 | > 100 µM | > 100 µM | > 100 µM | > 100 |  |  |  |  |  |  |  |  |  |  |  | 
5 | CCC[CH2][Sn]([CH2]CCC)([O]C(=O)c1cc(OC)c(OC)cc1OC)[O]C(=O)c1cc(OC)c(OC)cc1OC | 4.83 | 2.85 | 1.22 | 2.36 | 1.47 µM | 5.51 µM | 1.53 µM | 2.66 | 1.64 | 1.51 | 0.346 | 1.03 | 0.327 | 2.14 µM | 0.402 | 1.35 |  |  |  | 
6 | COc1cc(/C=C/c2ccc(OC(C)=O)cc2)cc(OC)c1OC | > 100 | > 100 | > 100 | > 100 | 39.2 µM |  |  | > 100 |  |  |  |  |  |  |  |  |  |  |  | 
7 | N#CCN1CCOCCOCCN(CC#N)CCOCCOCC1 | > 100 | > 100 | > 100 | > 100 | > 100 µM |  | > 100 µM |  |  |  |  |  |  |  |  |  |  |  |  | 
8 | O=C(CC(=O)Nc1ccccc1O)Nc1ccccc1O | > 100 | 27.5 | 63.9 | 28.4 |  | > 100 µM | 37.2 µM | > 100 |  |  |  |  |  |  |  |  |  |  |  | 
9 | CC1=C(C(=O)CC(=O)C(=O)Nc2ccccc2)Sc2ccccc2N1 | > 100 | > 100 | > 100 | > 100 | > 100 µM | > 100 µM |  | > 100 |  |  |  |  |  |  |  |  |  |  |  | 
10 | Nc1ncnc2c(C3OC(CO)C(O)C3O)[nH]nc12 (centres undefined) |  | 3.16 |  | 80.5 | 2.92 µM and 1.88 µM | 0.241 µM and 0.6 µM | 5.29 µM and 1.25 µM | 25.4 | 1.6 |  |  |  |  | 0.0323 µM and 0.0738 µM |  | 1.39 | 0.0484 | 2.85 µM and 1.17 µM | 0.0308 | 1.57
11 | Cc1ccc(C2(O)CC(c3ccc([N+](=O)[O-])o3)=NN2C(=O)COc2ccccc2Cl)cc1 (centres undefined) | 28.8 | > 87.4 | 49.2 | 33.5 |  | > 100 µM | > 75.4 µM | 28.2 |  |  |  |  |  |  |  |  |  |  |  | 
12 | Nc1nc(N)c(N=O)c(Nc2ccc(I)cc2)n1 | > 100 | 43.5 | 60.6 | > 100 | 55.2 µM | 39.2 µM |  | > 100 |  |  |  |  |  |  |  |  |  |  |  | 
13 | CCCCCCCCCC1C(C)c2c([nH]c3ccccc23)C2C(=O)N(c3ccccc3)C(=O)C21 (centres undefined) | > 100 | 10.2 | 50.4 |  | 5.55 µM | 33.5 µM | 26.9 µM | 26.7 |  |  |  |  |  |  |  |  |  |  |  | 
14 | COc1cc2c(c(OC)c1OC)-c1ccc(SC)c(=O)cc1[C@@H](NCc1cccc(C#N)c1)CC2 | > 75 |  | > 75 | 42.4 |  |  | 0.0568 µM | 0.0434 | < 0.0075 | < 0.0075 | < 0.0075 | < 0.0075 |  | < 0.0075 µM |  |  |  |  |  | 
15 | COc1ccc2[nH]c(=O)c(/C=C/C(=O)/C=C/c3ccc(O)c(OC)c3)cc2c1 | 4.35 | 0.338 |  |  | 2.9 µM | 9.82 µM | 14.4 µM | 2.68 | 1.95 | 0.164 |  |  | 1.5 | 2.79 µM | 2.96 | 1.17 | 3.39 | > 100 µM | 2.63 | 13.9
16 | S=C=NCc1ccccc1 | 28.4 | 2.36 |  |  | 3.18 µM | 25.1 µM | 17.1 µM | 12.2 |  |  |  |  |  |  |  |  |  | > 32 µM |  | 33.3
17 | Cc1ccc(N=Nc2c(N)nn(-c3ccccc3)c2N)cc1 | > 100 | > 100 |  |  | > 100 µM | > 100 µM | > 78.3 µM | > 100 | 3.72 | 0.542 |  |  | 2.9 | 2.63 µM | 2.3 | 0.762 | 0.412 | > 20.6 µM | 1.74 | > 100
18 | CCC1(C(=O)OC)CCc2c(OC)ccc(OC)c2C1=O (centres undefined) | > 100 | > 100 | > 100 | > 100 |  | > 100 µM |  | > 100 |  |  |  |  |  |  |  |  |  |  |  | 
19 | CC[C@H](C)[C@@H]1NC(=O)[C@H](Cc2ccc(O)cc2)N(C)C(=O)[C@H](Cc2ccccc2)NC(=O)CN(C)C(=O)[C@@H]2CCCN2C(=O)[C@@H](Cc2ccccc2)N(C)C(=O)[C@H](CC(C)C)NC1=O (cyclo(F[NMeY]IL[dNMeF]P[Sar])) | 6.47 | 10.5 |  |  | 3.27 µM | 7.73 µM | 2.78 µM | 7.26 | 0.301 | 0.155 |  |  | 0.519 | 0.446 µM | 0.206 | 0.146 | 14 | > 100 µM | 0.157 | 6.21
20 | C/C1=C\C/C=C(\C)[C@H]2CC(CC/C(C)=C/CC1)[C@@](C)(CO)O2 | > 100 | > 100 |  |  | > 100 µM | > 100 µM | > 100 µM | > 100 | > 100 | 44.5 |  |  | > 100 | > 100 µM | > 100 | 84.2 | > 100 | > 100 µM | > 100 | > 100
